Consider two molecules from US20180311204A1, “METHOD FOR PREVENTING OR TREATING HEART FAILURE” (GUANGZHOU MEDICAL UNIVERSITY, priority 2017, published 2018).

The subject of test [1] is Myocardial Ischemia Rat Model. The experiment in a line: Determination of infarct size by TTC staining. Type of test: in vivo. Conditions: compared to the infarction group. The procedure: 60 rats were randomized into 6 groups: (i) sham group (Sham), n=10, (left anterior descending (LAD) coronary arteries of the rats were only laid upon sutures without ligation, and 0.5% Tween normal saline was injected intraperitoneally); (ii) infarction group (AMI), n=10, (LAD coronary arteries of the rats were ligated before 0.5% Tween normal saline was injected intraperitoneally); (iii) nobiletin group of low dosage (AMI+NOB-L, n=10; LAD coronary arteries of the rats were ligated before 7.5 mg/kg nobiletin was injected intraperitoneally); (v) nobiletin group of medium dosage (AMI+NOB-M), n=10, (LAD coronary arteries of the rats were ligated before 15 mg/kg nobiletin was injected intraperitoneally); (vi) nobiletin group of high dosage (AMI+NOB-H), n=10, (LAD coronary arteries of the rats were ligated before 30 mg/kg nobiletin was injected intraperitoneally); (vii) enalapril group (AMI+Enalapril), n=10, (LAD coronary arteries of the rats were ligated before 10 mg/kg enalapril was given intragastrically); echocardiograms were taken after the 21-day experiment. Male SD rats were weighed and then anaesthetized by intraperitoneal injections of 10% chloral hydrate (300 mg/kg). The rats were fixed on a table lying on their back, each connected with an electrocardiography and 2-lead electrocardiograms (ECGs) were recorded. The rats were inserted with trachea cannulas and artificially ventilated with a ventilator (positive airway pressure, frequency: 70 times/min, Ti/(I:E)=5:4, VT: about 15 ml/kg). Sterilized the left parasternal skin on the third and forth intercostals regions, cut the skin and separated muscle layers trough blunt dissection, opened the thorax, then cut the pericardium to expose the left ventricle and the left auricle, the left ventricle coronary artery was seen descending from the middle of the left auricle to the anterior wall of the left ventricle (see FIG. 1). Using left coronary artery as a reference, between left auricle and pulmonary conus arteriosus, the left anterior descending (LAD) coronary arteries of the rats were ligated by NO. 6-0 sutures. ST segments rose in 2-lead electrocardiogram of the rat after LAD ligation (see FIG. 2), and myocardial ischemia symptoms such as the distal myocardial tissues turned pale after LAD ligation acted as an index of whether the ligation worked (see FIG. 3). Sham-treated rats underwent the same surgical procedure without the ligation of LAD coronary artery. […] When myocardial infarction occurs for some time, dehydrogenases in the cells were released and lost due to cell membrane damages. Because TTC is not deoxidized into a colored form, infarcted myocardium cannot be stained. […] (2) […]: Removed atriums and right ventricles, restored left ventricles were weighed and recorded. […] Weighed and recorded each slices. […]

Test [2] has as its system Myocardial Ischemia Rat Model. Description: Echocardiography in myocardial ischemia rat model (LAD ligation), effect of nobiletin on ventricle. The format is in vivo. Conditions: 21-day experiment, compared to the infarction group.
The next test has as its system H9C2 cells. Description: Apoptosis detection by Annexin V/PI staining in cardiomyocytes subjected to oxygen-glucose deprivation (OGD). The conditions noted are these: H9C2 cells with OGD treatment, 5, 10, 20, 40, 80 μM nobiletin, dose-dependent manner, versus OGD control. The format is cell-based. The protocol:
In vitro, H9C2 cells with OGD treatment were used to model myocardial ischemia. OGD treatment: the cells were cultured and subjected to OGD when the density of the cells reached to 80%-90%. Collected the OGD-treated cells from the medium and rinsed trice with glucose-free EBSS, after that cultured the cells in the same medium at 37° C. in an anoxia chamber saturated with 94% N2/5% CO2/1% O2 for a preset time.
After previous procedures, the cells were digested with 0.25% trypsin and collected to stain with both fluorescein isothiocyanate (FITC) labeled […] (Annexin V-FITC) and PI (according to the manufacturer's protocol of Annexin V-FITC kits). Flow cytometry detection was carried out immediately under an excitation wavelength of […] to detect 1×10^4 cells. PI emits light of a wavelength about 623 nm (red fluorescence) while FITC emits light of about 520 nm (green fluorescence). Analyzed the detection data by CELLQEST Software and the results were shown in scatter plots (see FIG. 9A-9F) and statistics (see FIG. 10).

Where [3] appears, read: enalapril group, 10 mg/kg intragastrically.
Setting [4] is: AMI+Enalapril, 10 mg/kg intragastrically.
The mark [5] stands for this setting: nobiletin groups (7.5, 15, 30 mg/kg intraperitoneally).
Where [6] appears, read: AMI+NOB-H, 30 mg/kg intraperitoneally.
The mark [7] stands for this setting: AMI+NOB-M, 15 mg/kg intraperitoneally.

For `CCOC(=O)[C@H](CCc1ccccc1)N[C@@H](C)C(=O)N1CCC[C@H]1C(=O)O` [enalapril, reference compound], in test [1] (setting [3]), the “infarct area percentages (FIG. 8)” value was “lower” and the “white infarct areas in TTC-stained myocardium (FIG. 7)” value is “smaller”. In test [2] (setting [4]), the “left ventricular ejection fraction (LVEF)” value is recorded as “significantly increased”; the “left ventricular fractional shortening (LVFS)” value was “significantly increased”; the “rise of left ventricular internal dimension, diastolic (LVIDD)” value (“rise … (LVIDD)” below) is recorded as “no significant reduction”; the “rise of left ventricular internal dimension, systolic (LVIDS)” value (from here on “rise … (LVIDS)”) is reported as “significantly reduced”.
For `COc1ccc(-c2cc(=O)c3c(OC)c(OC)c(OC)c(OC)c3o2)cc1OC` [nobiletin], in test [1] (setting [5]), the “infarct area percentages (FIG. 8)” value was “lower” and the “white infarct areas in TTC-stained myocardium (FIG. 7)” value is “smaller”. In addition, the “apoptosis resulting from OGD” value with H9C2 cells is listed as “significantly reduced”. Besides, in test [2] (setting [6]), the “left ventricular ejection fraction (LVEF)” value is recorded as “significantly increased”; the “left ventricular fractional shortening (LVFS)” value was “significantly increased”; the “rise … (LVIDD)” value is reported as “no significant reduction”; the “rise … (LVIDS)” value was “significantly reduced”. In test [2] (setting [7]), the “left ventricular ejection fraction (LVEF)” value was “significantly increased”; the “left ventricular fractional shortening (LVFS)” value is recorded as “significantly increased”; the “rise … (LVIDD)” value is on record as “no significant reduction”; the “rise … (LVIDS)” value was “significantly reduced”.
